# Test system: pressor response to exogenous angiotensin II
# Test: Inhibition of Pressor Response to Angiotensin II in Conscious Rats
# Type: in vivo
# Settings: Rattus norvegicus, mean arterial pressure, 250 mg/kg angiotensin II i.v. as printed, compounds given intravenously or orally at 3 to 300 mg/kg (route not given), read-out: IC50 (dose of compound needed to produce 50% inhibition of the control pressor response to angiotensin II)
# Description: Angiotensin II antagonist activity of the compounds of Formula (I) is assessed by in vitro and in vivo methods. In vitro antagonist activity is determined by the ability of the compounds to compete with ^125 I-angiotensin II for binding to vascular angiotensin II receptors and by their ability to antagonize the contractile response to angiotensin II in the isolated rabbit aorta. In vivo activity is evaluated by the efficacy of the compounds to inhibit- the pressor response to exogenous angiotensin II in conscious rats and to lower blood pressure in a rat model of renin dependent hypertension.
# Rats are prepared with indwelling femoral arterial and venous catheters and a stomach tube (Gellai et al., Kidney Int. 15:419, 1979). Two to three days following surgery the rats are placed in a restrainer and blood pressure is continuously monitored from the arterial catheter with a pressure transducer and recorded on a polygraph. The change in mean arterial pressure in response to intravenous injections of […] angiotensin II is compared at various time points prior to and following the administration of the compounds intravenously or orally at doses of 3 to 300 mg/kg. The dose of compound needed to produce 50% inhibition of the control response to angiotensin II (IC50) is used to estimate the potency of the compounds.
smiles,measurement,value
"CCCCc1ncc(CC(=O)N[C@@H](Cc2ccccc2)C(=O)O)n1Cc1ccccc1Cl [Example 14, N-[{2-n-Butyl-1-(2-chlorophenyl)methyl-1H-imidazol-5-yl}methylcarbonyl]-L-phenylalanine]",ED50,16 mg/kg

# From patent publication US5234917A, “Substituted 5-(alkyl)carboxamide imidazoles” (priority 1990, dated 1993)
